We go through two compounds from patent US20230040386A1, “URSODEOXYCHOLIC ACID-CONTAINING AGENT FOR TREATING OR PREVENTING PRESBYOPIA” (priority 2018, published 2023).

What all share (format): in vivo, C57BL/6J mice
Assay [1] concerns lens. Kind of assay: Pharmacological Test 5: lens elasticity, 1% ursodeoxycholic acid once-daily for 1, 3, 7, 10 or 14 days. Particulars: for Lens elasticity improvement: 1% sample, QD, 24 h after final instillation, vs untreated group. How it is done:
A vehicle comprising 0.1% (w/v) of ethyl pyruvate, 0.269% (w/v) of sodium dihydrogenphosphate monohydrate (NaH2PO4H2O), 0.433% (w/v) of disodium hydrogenphosphate (Na2HPO4), 0.2% (w/v) of hydroxypropyl methylcellulose, 0.5% (w/v) of NaCl was prepared. Ursodeoxycholic acid was sonicated with the addition of the vehicle to prepare a 1.0% (w/v) suspension. The total amount of the sample to be used in one day was prepared before use. 1) The test sample (2.5 μL/eye) was instilled into both eyes of 8-month-old C57BL/6J mice with a Pipetman once per day (QD; around 13:30) for 1, 3, 7, 10, or 14 days. 2) Twenty-four hours after the final instillation, the mice were euthanized by carbon dioxide inhalation, and then the eyeballs were extracted and rinsed with Hank's balanced salt solution (HBSS). 3) The sclera near the optic nerve was cut with a razor, the lens was removed through the incision, and the removed lens was immersed in HBSS. 4) The lens was placed on a glass slide, and an all-in-one fluorescence microscope BZ-9000 (Keyence) was used to capture an image of the lens (image a). 5) Next, one cover glass (Corning^(registered trade mark) 22×22 mm Square) was placed on the lens, and an image in which the thickness of the lens changed due to the weight was similarly captured (Image b). 6) A change in the lens diameter was calculated from Equation 1 wherein the lens diameter of Image a is subtracted from the lens diameter of Image b, as described below. Then, the lens elasticity improvement of each sample group compared with the […] was calculated from Equation 2 described below. Each mean of the untreated group and each ursodeoxycholic acid sample group was based on 9 or 10 eyes. Change in lens diameter=Lens diameter in Image b of each test sample−Lens diameter in Image a of each test sample (Equation 1) Lens elasticity improvement of each sample group=Mean change in lens diameter of each Test sample group−Mean change in lens diameter of Untreated group (Equation 2)

The test system of assay [2] is lens. Kind of assay: Pharmacological Test 1: lens elasticity after instillation of EV06. The conditions noted are these: all of the 0.5%, 1.5% and 5% groups compared with vehicle control group. How it is done:
The effect of lipoic acid choline ester (EV06) on the lens elasticity was examined. The tests were conducted with reference to the methods described in InvestOphthalmol Vis Sci, 57, 2851-2863, 2016. EV06 is a compound represented by the following formula (2): A vehicle comprising 0.1% (w/v) of ethyl pyruvate, 0.269% (w/v) of sodium dihydrogenphosphate monohydrate (NaH2PO4H2O), 0.433% (w/v) of disodium hydrogenphosphate ([…]), 0.2% (w/v) of hydroxypropyl methylcellulose, and 0.5% (w/v) of NaCl was prepared. EV06 was sonicated with the addition of the vehicle to prepare a 5% (w/v) suspension. The resulting 5% (w/v) suspension was diluted with the vehicle to prepare a 1.5% (w/v) solution. Further, the resulting 1.5% (w/v) solution was diluted with the vehicle to prepare a 0.5% (w/v) solution. The total amount of each sample to be used in one day was prepared before use. […] 4) The lens was placed on a glass slide, and an all-in-one fluorescence microscope BZ-9000 (Keyence) was used to capture an image of the lens (Image a). […] 6) A change in the lens diameter was calculated from Equation 1 wherein the lens diameter of Image a is subtracted from the lens diameter of Image b, as described below. Then, the lens elasticity improvement of each sample group compared with the vehicle control group was calculated from Equation 2 described below. […]

Assay [3] concerns lens. Kind of assay: Pharmacological Test 2: lens elasticity after instillation of sodium ursodeoxycholate. The conditions noted are these: 1.5% (w/v) sample, 2.5 μL/eye, 3 times per day, 12 to 15 days, vs vehicle control. How it is done: A vehicle comprising 0.1% (w/v) of ethyl pyruvate, 0.269% (w/v) of sodium dihydrogenphosphate monohydrate (NaH2PO4H2O), 0.433% (w/v) of disodium hydrogenphosphate (Na2HPO4), 0.2% (w/v) of hydroxypropyl methylcellulose, 0.5% (w/v) of NaCl was prepared. Sodium ursodeoxycholate was sonicated with the addition of the vehicle to prepare a 1.5% (w/v) suspension. The resulting 1.5% (w/v) suspension was diluted with the vehicle to prepare a 0.5% (w/v) suspension. Further, the resulting 0.5% (w/v) suspension was diluted with the vehicle to prepare a 0.15% (w/v) suspension. The total amount of each sample to be used in one day was prepared before use. EV06 was sonicated with the addition of the vehicle to prepare a 1.5% (w/v) solution. The total amount of the sample to be used in one day was prepared before use. 1) Each test sample (2.5 μL/eye) was instilled into the right eye of 8-month-old C57BL/6J mice with a Pipetman 3 times per day (around 9:00, 13:00 and 17:00) for 12 to 15 days. 2) After the final instillation, the mice were euthanized by carbon dioxide inhalation, and then the eyeballs were extracted and rinsed with Hank's balanced salt solution (HBSS)). 3) The sclera near the optic nerve was cut with a razor, the lens was removed through the incision, and the removed lens was immersed in HBSS. 4) The lens was placed on a glass slide, and an all-in-one fluorescence microscope BZ-9000 (Keyence) was used to capture an image of the lens (Image a). 5) Next, one cover glass (Corning^(registered trade mark) 22×22 mm Square) was placed on the lens, and an image in which the thickness of the lens changed due to the weight was similarly captured (Image b). 6) A change in the lens diameter was calculated from Equation 1 wherein the lens diameter of Image a is subtracted from the lens diameter of Image b, as described below. Then, the lens elasticity improvement of each sample group compared with the vehicle control group was calculated from Equation 2 described below. The mean of the vehicle control group was based on 5 eyes, the mean of each sodium ursodeoxycholate sample group was based on 10 eyes, and the mean of the EV06 sample group was based on 10 eyes. Change in lens diameter Lens diameter in image b of each test sample−Lens diameter in Image a of each test sample (Equation 1) Lens elasticity improvement of each sample group=Mean change in lens diameter of each Test sample group−Mean change in lens diameter of Vehicle control group (Equation 2)

On to `C[C@H](CCC(=O)O)[C@H]1CC[C@H]2[C@@H]3[C@@H](O)C[C@@H]4C[C@H](O)CC[C@]4(C)[C@H]3CC[C@]12C` [ursodeoxycholic acid, 3α,7β-Dihydroxy-5β-cholan-24-oic acid], for which the “Lens elasticity improvement, in words” value with lens [1] (1% sample instilled once-daily, by duration of instillation) is “showed definitely an improvement in lens elasticity after instillation for 3 days”. In addition, the Lens elasticity improvement with lens [1] (1 day) is 9.6 μm; in the assay with lens [1] (3 days), 21.1 μm; with lens [1] (7 days), 27.4 μm; with lens [1] (10 days), 38.1 μm; in the assay on lens [1] (14 days), 34.2 μm.

In the case of `C[N+](C)(C)CCOC(=O)CCCC[C@@H]1CCSS1` [EV06, lipoic acid choline ester], the “Lens diameter / elasticity improving effect, in words” value with lens [2] is “increased lens diameter”. Further, the Lens elasticity improvement with lens [3] is recorded as 38.2 μm.
